The values below come from patent US8084643B2, “Water-soluble prodrugs of florfenicol and its analogs” (Intervet Inc., priority 2006, dated 2011).

Molecules are shown by their SMILES. Like-named read-outs stand apart in the source and are kept apart here.

Series [1] can be described thus: Stability of prodrugs in aqueous solution at pH 4.5. Type of series: physicochemical. The following applies: distilled water, pH 4.5, room temperature, florfenicol release by HPLC. As to the method:
(§1) Determination of stability of prodrugs in aqueous solutions. Prodrugs were dissolved in pH 7.4 phosphate buffer at concentration of 1 mg/mL. • The clear solution was placed at room temperature. 400 μL aliquots of the solution were transferred at times 0, 1, 2, 8, 24, and 48 hours to plastic tubes containing 400 μL dilute HCl solution to achieve the final pH of around 4.0. Samples were analyzed by HPLC. The peak area of florfenicol was used to determine the rate of the parent drug release. at pH 4.5 • Prodrugs were dissolved in distilled water at concentration of 0.5 mg/mL. The pH was adjusted to 4.5 with dilute HCl when necessary. The clear solution was placed at room temperature. Samples for analysis were removed at times 0, 1, 2, 4, and 7 days. Samples were analyzed by HPLC. Peak area of florfenicol was used to determine the rate of the parent drug release. Instrument: Agilent 1100 Column: C18, 5 mm, 2.1 mm×150 mm Flow rate: 0.5 mL/min Temperature: 30° C. Detector: UV 254 nm Injection volume: 10 mL Solvent: gradient with 0.1% formic acid in water, acetonitrile

Series [2] can be described thus: Stability of prodrugs in aqueous solution at pH 7.4 (phosphate buffer). It counts as physicochemical. Here is the method: Determination of stability of prodrugs in aqueous solutions.
as §1, with “Prodrugs” for “Determination of stability of prodrugs in aqueous solutions. Prodrugs”, “release.” for “release. Instrument: Agilent 1100 Column: C18, 5 mm, 2.1 mm×150 mm Flow rate: 0.5 mL/min Temperature: 30° C. Detector: UV 254 nm Injection volume: 10 mL Solvent: gradient with 0.1% formic acid in water, acetonitrile”
(§2) Solvent: gradient with 0.1% formic acid in water, acetonitrile

Assay in series [3]: as above
Type of series: physicochemical. The following applies: in vitro evaluation, pH 7.4 adjusted solution.

The nature of series [4]: Stability of prodrugs in bovine serum. It counts as in vitro ADME. The conditions noted are these: for half-life at 0.099 mg/mL: 37° C. As to the method:
(§3) Determination of stability of prodrugs in bovine or swine serum; • 10 mg/mL in dimethylsulfoxide stock solutions of pro-drugs were prepared. 50 μL of the above stock solution was added to 5 mL bovine or swine serum, and mixed. 400 μL aliquots of the above pro-drug serum solutions were transferred into plastic tubes (one tube per time point). Solutions were incubated at 37° C. for predetermined time. Samples were removed at times 0, 1, 2, 4, 8, and 24 hours and were spiked with 400 μL of acetonitrile. Samples were stirred for 30 seconds to precipitate the protein and to stop the reaction and were centrifuged at 14,000 rpm for 5 minutes. The supernatant was collected for HPLC analysis. Peak area of florfenicol was used to determine the rate of the parent drug release HPLC Conditions
as §2

The nature of series [5]: Stability of prodrugs in swine serum. Type of series: in vitro ADME. The conditions noted are these: 37° C., florfenicol release by HPLC. Here is the method:
as §3, §2

The mark [6] stands for this setting: pH 7.4, pH 7.4 aqueous solutions, range from a few minutes to 3 hrs, read-out: Half-lives in pH 7.4 aqueous solutions.
[7] abbreviates: pH 7.4, pH 7.4 phosphate buffer, 1 mg/mL, room temperature, florfenicol release by HPLC, read-out: Half life pH 7.4 (converted).

For `CS(=O)(=O)c1ccc([C@@H](OC(=O)OCCN)[C@@H](CF)NC(=O)C(Cl)Cl)cc1.Cl` [Example 1, (1R,2S)-2-(2,2-dichloroacetamido)-3-fluoro-1-(4-(methylsulfonyl)phenyl)propyl 2-aminoethyl carbonate hydrochloride], in series [1], the half-life at 0.5 mg/mL is 202 days. Moreover, the half-life at 1 mg/mL in series [2] (setting [6]) is at most 3 h; in series [2] (setting [7]), 1.8 h. Besides, the “formation of the rearranged isomer of the prodrug” value (“formation” below) in series [3] is listed as “considerable amounts”. Moreover, the half-life at 0.099 mg/mL in series [4] (florfenicol release by HPLC) was 0.7 h.

Turning to `CNCCOC(=O)O[C@H](c1ccc(S(C)(=O)=O)cc1)[C@@H](CF)NC(=O)C(Cl)Cl.Cl` [Example 2, (1R,2S)-2-(2,2-dichloroacetamido)-3-fluoro-1-(4-(methylsulfonyl)phenyl)propyl 2-(methylamino)ethyl carbonate hydrochloride], the half-life at 0.5 mg/mL in series [1] is 487 days. The results for the half-life at 1 mg/mL in series [2] (setting [6]) and in series [2] (setting [7]) were at most 3 h and 0.5 h, respectively. In addition, the “formation” value in series [3] is “considerable amounts”.

In the case of `CS(=O)(=O)c1ccc([C@@H](OC(=O)CCCN)[C@@H](CF)NC(=O)C(Cl)Cl)cc1.Cl` [Example 3, (1R,2S)-2-(2,2-dichloroacetamido)-3-fluoro-1-(4-(methylsulfonyl)phenyl)propyl 4-aminobutyrate hydrochloride], the half-life at 1 mg/mL in series [2] (setting [7]) is 300 h. Besides, the half-life at 0.099 mg/mL in series [4] (florfenicol release by HPLC) was 3.5 h.

Consider `C[C@@H](N)C(=O)NCCCC(=O)O[C@H](c1ccc(S(C)(=O)=O)cc1)[C@@H](CF)NC(=O)C(Cl)Cl.Cl` [Example 4, (1R,2S)-2-(2,2-dichloroacetamido)-3-fluoro-1-(4-(methylsulfonyl)phenyl)propyl 4-(2-amino-propionylamino)butyrate hydrochloride], for which the half-life at 0.5 mg/mL in series [1] is 278 days. In addition, the half-life at 1 mg/mL in series [2] (setting [7]) is 670 h. Further, the half-life at 0.099 mg/mL in series [4] (florfenicol release by HPLC) is 6.5 h.

Turning to `CS(=O)(=O)c1ccc([C@@H](OC(=O)OCCCN)[C@@H](CF)NC(=O)C(Cl)Cl)cc1.Cl` [Example 5, (1R,2S)-2-(2,2-dichloroacetamido)-3-fluoro-1-(4-(methylsulfonyl)phenyl)propyl 3-aminopropyl carbonate hydrochloride], the half-life at 0.5 mg/mL in series [1] is 248 days. The half-life at 1 mg/mL in series [2] (setting [7]) is 83 h. The “formation” value in series [3] is “only a small amount of rearrangement product”. The half-life at 0.099 mg/mL in series [5] is 9.5 h; in series [4] (florfenicol release by HPLC), 3.8 h. Also, in series [4], the “rearrangement in bovine serum” value is “no rearrangement was observed”.

As to `CNCCCOC(=O)O[C@H](c1ccc(S(C)(=O)=O)cc1)[C@@H](CF)NC(=O)C(Cl)Cl.Cl` [Example 6, (1R,2S)-2-(2,2-dichloroacetamido)-3-fluoro-1-(4-(methylsulfonyl)phenyl)propyl 3-(methylamino)propyl carbonate hydrochloride], in series [1], the half-life at 0.5 mg/mL was 269 days. Moreover, the half-life at 1 mg/mL in series [2] (setting [7]) is 74 h. For the same compound, the “formation” value in series [3] was “did not show any formation of the rearranged isomer”. Besides, the half-life at 0.099 mg/mL in series [5] is 7 h; in series [4] (florfenicol release by HPLC), 0.69 h.

As to `CCNCCOC(=O)O[C@H](c1ccc(S(C)(=O)=O)cc1)[C@@H](CF)NC(=O)C(Cl)Cl.Cl` [Example 7, (1R,2S)-2-(2,2-dichloroacetamido)-3-fluoro-1-(4-(methylsulfonyl)phenyl)propyl 2-(ethylamino)ethyl carbonate hydrochloride], the half-life at 0.5 mg/mL in series [1] was 156 days. For the same compound, the half-life at 1 mg/mL in series [2] (setting [6]) was at most 3 h; in series [2] (setting [7]), 6.1 h. Also, the “formation” value in series [3] is recorded as “considerable amounts”. Further, the half-life at 0.099 mg/mL in series [4] (florfenicol release by HPLC) is 0.59 h.

As for `CS(=O)(=O)c1ccc([C@@H](OC(=O)[C@H](N)CCCN)[C@@H](CF)NC(=O)C(Cl)Cl)cc1.Cl.Cl` [Example 8], the half-life at 0.5 mg/mL in series [1] is 44 days. Moreover, the half-life at 1 mg/mL in series [2] (setting [6]) is at most 3 h; in series [2] (pH 7.4, pH 7.4 phosphate buffer, 1 mg/mL, room temperature, min, read-out: Half life pH 7.4 (converted)), below 0.167 h. In addition, the half-life at 0.099 mg/mL in series [4] (min) was below 0.167 h.

Consider `CS(=O)(=O)c1ccc([C@@H](OC(=O)CNC(=O)CN)[C@@H](CF)NC(=O)C(Cl)Cl)cc1.Cl` [Example 9, (1R,2S)-2-(2,2-dichloroacetamido)-3-fluoro-1-(4-(methylsulfonyl)phenyl)propyl (1-amino-acetoamino)acetate hydrochloride], for which the half-life at 0.5 mg/mL in series [1] is 52 days. Further, the half-life at 1 mg/mL in series [2] (setting [6]) was at most 3 h; in series [2] (setting [7]), 0.89 h. In addition, the half-life at 0.099 mg/mL in series [5] is 1.2 h; in series [4] (florfenicol release by HPLC), 1.4 h.

As to `CS(=O)(=O)c1ccc([C@@H](OC(=O)CCCCN)[C@@H](CF)NC(=O)C(Cl)Cl)cc1.Cl` [Example 10, (1R,2S)-2-(2,2-dichloroacetamido)-3-fluoro-1-(4-(methylsulfonyl)phenyl)propyl 5-aminopentanoate hydrochloride], the half-life at 0.5 mg/mL in series [1] was 643 days. The half-life at 1 mg/mL in series [2] (setting [7]) was 100 h. Further, the values for the half-life at 0.099 mg/mL in series [5] and in series [4] (florfenicol release by HPLC) were 4.1 h and 0.49 h, respectively.

Regarding `C[C@H](N)C(=O)N[C@@H](C)C(=O)O[C@H](c1ccc(S(C)(=O)=O)cc1)[C@@H](CF)NC(=O)C(Cl)Cl.Cl` [Example 11, (1R,2S)-2-(2,2-dichloroacetamido)-3-fluoro-1-(4-(methylsulfonyl)phenyl)propyl 2-(2-amino-propionylamino)propionate hydrochloride], the half-life at 0.5 mg/mL in series [1] was 290 days. The half-life at 1 mg/mL in series [2] (setting [6]) is at most 3 h; in series [2] (setting [7]) it was 2.5 h. In series [4] (min), the half-life at 0.099 mg/mL is below 0.167 h.

`CNCCCCC(=O)O[C@H](c1ccc(S(C)(=O)=O)cc1)[C@@H](CF)NC(=O)C(Cl)Cl.Cl` [Example 12]: in series [1], the half-life at 0.5 mg/mL is 567 days. Further, in series [2] (setting [7]), the half-life at 1 mg/mL is 84 h. In series [4] (florfenicol release by HPLC), the half-life at 0.099 mg/mL is 1.4 h.

For the compound `CCNCCCOC(=O)O[C@H](c1ccc(S(C)(=O)=O)cc1)[C@@H](CF)NC(=O)C(Cl)Cl.Cl` [Example 13, (1R,2S)-2-(2,2-dichloroacetamido)-3-fluoro-1-(4-(methylsulfonyl)phenyl)propyl 3-(ethylamino)propyl carbonate hydrochloride], the half-life at 0.5 mg/mL in series [1] was 339 days. For the same compound, in series [2] (setting [7]), the half-life at 1 mg/mL is 290 h. Moreover, the half-life at 0.099 mg/mL in series [4] (florfenicol release by HPLC) was 0.71 h.

Regarding `CS(=O)(=O)c1ccc([C@@H](OC(=O)COCCN)[C@@H](CF)NC(=O)C(Cl)Cl)cc1.Cl` [Example 14, (1R,2S)-2-(2,2-dichloroacetamido)-3-fluoro-1-(4-(methylsulfonyl)phenyl)propyl (2-amino-ethoxy)acetate hydrochloride], the half-life at 0.5 mg/mL in series [1] was 137 days. The values for the half-life at 1 mg/mL in series [2] (setting [6]) and in series [2] (setting [7]) were at most 3 h and 0.66 h, respectively. Also, the half-life at 0.099 mg/mL in series [4] (min) was below 0.167 h.

For the compound `Br.C[N+](C)(C)CCCC(=O)O[C@H](c1ccc(S(C)(=O)=O)cc1)[C@@H](CF)NC(=O)C(Cl)Cl` [Example 15], the half-life at 0.5 mg/mL in series [1] is above 1000 days. The half-life at 1 mg/mL in series [2] (setting [7]) was 160 h.

Regarding `Br.Cn1cc[n+](CCCC(=O)O[C@H](c2ccc(S(C)(=O)=O)cc2)[C@@H](CF)NC(=O)C(Cl)Cl)c1` [Example 16, 1-[3-[2-(2,2-Dichloro-acetylamino)-3-fluoro-1-(4-methanesulfonyl-phenyl)-propoxycarbonyl]-propyl]-3-methyl-3H-imidazol-1-ium bromide], in series [1], the half-life at 0.5 mg/mL was above 1000 days. Moreover, the half-life at 1 mg/mL in series [2] (setting [7]) is 350 h. Further, the half-life at 0.099 mg/mL in series [4] (florfenicol release by HPLC) is 10.5 h.

Regarding `CS(=O)(=O)c1ccc([C@@H](OC(=O)CN)[C@@H](CF)NC(=O)C(Cl)Cl)cc1` [Example 17, Amino-acetic acid 2-(2,2-dichloro-acetylamino)-3-fluoro-1-(4-methanesulfonyl-phenyl)-propyl ester], the half-life at 0.5 mg/mL in series [1] was 18 days. Moreover, the half-life at 1 mg/mL in series [2] (setting [7]) was 4.4 h. In series [4] (florfenicol release by HPLC), the half-life at 0.099 mg/mL is 1.8 h.
